# Experimental data as given in patent US20200354426A1 (MEDIMMUNE LIMITED, priority 2016, published 2020).
# Where two headings read alike, the source gives them in different places. Numbered stars: 1 amine (or outer) side, 2 acyl side, 3 side chain; on linkers, the order of the positions; unused ones are H or OH. Side chains are listed from the residue outwards. Peptide text beside a SMILES is read from it. * marks the point of attachment. γGlu = O=C(O)[C@H](CCC(=O)[*:2])N[*:1]; Palmitoyl = CCCCCCCCCCCCCCCC(=O)*; Ahx = NCCCCCC(=O)O; βAla = NCCC(=O)O
# Tests used:
# Assay in all cases: cAMP activity assay in assay medium (assay 1)
# Format in all cases: cell-based
# Conditions in all cases: Table 4
# Human GLP1R = Human GLP1R (Homo sapiens, UniProt P43220); design: expressed in transfected cells
# Source text: (§1) Biological Activity of Peptides in Cell-Based cAMP Activity Assay (Assay 1):
# (§2) All sample dilutions were made in duplicate.
# Human GIPr = target: T1, Human GIPr (Homo sapiens, UniProt P48546)
# T1 construct: expressed in transfected cells
# T1 sequence (P48546 22-466): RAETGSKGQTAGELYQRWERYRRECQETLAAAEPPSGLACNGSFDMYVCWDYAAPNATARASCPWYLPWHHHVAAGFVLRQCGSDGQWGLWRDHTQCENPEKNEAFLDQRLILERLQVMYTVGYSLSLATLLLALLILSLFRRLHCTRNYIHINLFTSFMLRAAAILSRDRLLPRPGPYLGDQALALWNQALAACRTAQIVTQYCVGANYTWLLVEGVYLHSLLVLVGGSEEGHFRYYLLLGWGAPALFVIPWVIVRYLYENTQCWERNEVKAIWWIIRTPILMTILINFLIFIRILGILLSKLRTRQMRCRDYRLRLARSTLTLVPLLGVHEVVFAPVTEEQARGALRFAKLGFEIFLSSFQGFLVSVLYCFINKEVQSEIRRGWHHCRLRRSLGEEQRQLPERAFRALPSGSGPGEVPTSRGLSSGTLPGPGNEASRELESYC
# Source text: as §1, §2
# Human GlucR = target: T2, Human GlucR (Homo sapiens, UniProt P47871)
# T2 construct: expressed in transfected cells
# Source text: as §1, §2
# [1] = assay medium, read-out: hGLP1R EC50
# [2] = assay medium, read-out: hGIPR EC50
# [3] = assay medium, read-out: hGlucR EC50
# Human GLP1R, sequence (P43220 24-463): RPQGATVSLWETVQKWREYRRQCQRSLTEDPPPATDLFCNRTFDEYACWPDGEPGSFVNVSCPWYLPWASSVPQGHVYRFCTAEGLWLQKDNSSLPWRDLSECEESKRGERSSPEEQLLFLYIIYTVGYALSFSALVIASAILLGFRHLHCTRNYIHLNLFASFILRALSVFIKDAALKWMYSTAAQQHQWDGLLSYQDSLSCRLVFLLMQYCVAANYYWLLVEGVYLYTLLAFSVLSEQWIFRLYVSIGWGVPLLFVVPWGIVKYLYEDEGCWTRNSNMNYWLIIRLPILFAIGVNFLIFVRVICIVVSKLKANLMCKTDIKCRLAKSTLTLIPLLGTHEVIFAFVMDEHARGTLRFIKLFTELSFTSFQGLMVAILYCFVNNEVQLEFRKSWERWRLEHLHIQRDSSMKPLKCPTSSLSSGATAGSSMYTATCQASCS
# T2 sequence (P47871 26-477): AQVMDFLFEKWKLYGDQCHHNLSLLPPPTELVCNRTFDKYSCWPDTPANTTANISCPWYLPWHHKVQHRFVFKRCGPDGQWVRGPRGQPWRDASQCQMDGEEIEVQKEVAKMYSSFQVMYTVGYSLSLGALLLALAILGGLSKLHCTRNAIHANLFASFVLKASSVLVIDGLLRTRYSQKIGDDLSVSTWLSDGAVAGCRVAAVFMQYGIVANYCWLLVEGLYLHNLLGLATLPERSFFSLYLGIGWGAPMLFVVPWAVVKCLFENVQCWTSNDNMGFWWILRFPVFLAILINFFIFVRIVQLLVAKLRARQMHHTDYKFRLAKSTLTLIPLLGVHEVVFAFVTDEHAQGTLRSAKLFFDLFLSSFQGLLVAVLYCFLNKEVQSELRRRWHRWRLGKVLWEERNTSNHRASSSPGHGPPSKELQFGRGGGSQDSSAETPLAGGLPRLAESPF
SMILES,EC50 (Human GLP1R; [1]),EC50 (Human GIPr; [2]),EC50 (Human GlucR; [3]),"EC50 (Human GLP1R; hGLP1R EC50, assay medium)","EC50 (Human GIPr; hGIPR EC50, assay medium)","EC50 (Human GlucR; hGlucR EC50, assay medium)"
CCCCCCCCCCCCCCCC(=O)NCCCCCC(=O)NCCCC[C@H](NC(=O)[C@H](CO)NC(=O)[C@H](CC(=O)O)NC(=O)[C@H](CC(C)C)NC(=O)[C@H](Cc1ccc(O)cc1)NC(=O)[C@H](CCC(=O)O)NC(=O)[C@H](CO)NC(=O)[C@H](Cc1ccc(O)cc1)NC(=O)[C@H](CC(=O)O)NC(=O)[C@H](CO)NC(=O)[C@@H](NC(=O)[C@H](Cc1ccccc1)NC(=O)[C@@H](NC(=O)CNC(=O)[C@H](CCC(=O)O)NC(=O)CNC(=O)[C@@H](N)Cc1c[nH]cn1)[C@@H](C)O)[C@@H](C)O)C(=O)N[C@@H](CCCNC(=N)N)C(=O)N[C@@H](C)C(=O)N[C@@H](CCCNC(=N)N)C(=O)N[C@@H](CC(=O)O)C(=O)N[C@@H](Cc1ccccc1)C(=O)N[C@H](C(=O)N[C@@H](CCC(=O)O)C(=O)N[C@@H](Cc1c[nH]c2ccccc12)C(=O)N[C@@H](CC(C)C)C(=O)N[C@@H](CCC(=O)O)C(=O)N[C@@H](CCCNC(=N)N)C(=O)NCC(=O)NCC(N)=O)C(C)C [g726] (H-HGEGTFTSDYSEYLDSK([Ahx-Palmitoyl])RARDFVEWLERGG-NH2; N-terminus assumed),0.00791 nM,215 nM,13.1 nM,,,
CCCCCCCCCCCCCCCC(=O)NCCCCCC(=O)NCCCC[C@H](NC(=O)[C@H](CO)NC(=O)[C@H](CC(=O)O)NC(=O)[C@H](CC(C)C)NC(=O)[C@H](Cc1ccc(O)cc1)NC(=O)[C@H](CCC(=O)O)NC(=O)[C@H](CO)NC(=O)[C@H](Cc1ccc(O)cc1)NC(=O)[C@H](CC(=O)O)NC(=O)[C@H](CO)NC(=O)[C@@H](NC(=O)[C@H](Cc1ccccc1)NC(=O)[C@@H](NC(=O)CNC(=O)[C@H](CCC(N)=O)NC(=O)CNC(=O)[C@@H](N)Cc1c[nH]cn1)[C@@H](C)O)[C@@H](C)O)C(=O)N[C@@H](CCCNC(=N)N)C(=O)N[C@@H](C)C(=O)N[C@@H](CCCNC(=N)N)C(=O)N[C@@H](CC(=O)O)C(=O)N[C@@H](Cc1ccccc1)C(=O)N[C@H](C(=O)N[C@@H](C)C(=O)N[C@@H](Cc1c[nH]c2ccccc12)C(=O)N[C@@H](CC(C)C)C(=O)N[C@@H](CCC(=O)O)C(=O)N[C@@H](CCCNC(=N)N)C(=O)NCC(=O)NCC(=O)O)C(C)C [g727] (H-HGQGTFTSDYSEYLDSK([Ahx-Palmitoyl])RARDFVAWLERGG-OH; N-terminus assumed),0.0263 nM,177 nM,0.218 nM,,,
CCCCCCCCCCCCCCCC(=O)N[C@@H](CCC(=O)NCCCC[C@H](NC(=O)[C@H](CO)NC(=O)[C@H](Cc1ccc(O)cc1)NC(=O)[C@H](CC(=O)O)NC(=O)[C@H](CO)NC(=O)[C@@H](NC(=O)[C@H](Cc1ccccc1)NC(=O)[C@@H](NC(=O)CNC(=O)[C@H](CCC(N)=O)NC(=O)[C@H](CO)NC(=O)[C@@H](N)Cc1c[nH]cn1)[C@@H](C)O)[C@@H](C)O)C(=O)N[C@@H](Cc1ccc(O)cc1)C(=O)N[C@@H](CC(C)C)C(=O)N[C@@H](CC(=O)O)C(=O)N[C@@H](CO)C(=O)N[C@@H](CCC(=O)O)C(=O)N[C@@H](CCCNC(=N)N)C(=O)N[C@@H](C)C(=O)N[C@@H](CCCNC(=N)N)C(=O)N[C@@H](CC(=O)O)C(=O)N[C@@H](Cc1ccccc1)C(=O)N[C@H](C(=O)N[C@@H](C)C(=O)N[C@@H](Cc1c[nH]c2ccccc12)C(=O)N[C@@H](CC(C)C)C(=O)N[C@H](C(=O)N[C@@H](C)C(=O)NCC(=O)NCC(N)=O)C(C)C)C(C)C)C(=O)O [g728] (H-HSQGTFTSDYSK([γGlu-Palmitoyl])YLDSERARDFVAWLVAGG-NH2; N-terminus assumed),0.169 nM,395 nM,2.44 nM,,,
CCCCCCCCCCCCCCCC(=O)N[C@@H](CCC(=O)NCCCC[C@H](NC(=O)[C@H](CCCCN)NC(=O)[C@H](CO)NC(=O)[C@H](Cc1ccc(O)cc1)NC(=O)[C@H](CC(=O)O)NC(=O)[C@H](CO)NC(=O)[C@@H](NC(=O)[C@H](Cc1ccccc1)NC(=O)[C@@H](NC(=O)CNC(=O)[C@H](CCC(N)=O)NC(=O)[C@H](CO)NC(=O)[C@@H](N)Cc1c[nH]cn1)[C@@H](C)O)[C@@H](C)O)C(=O)N[C@@H](CC(C)C)C(=O)N[C@@H](CC(=O)O)C(=O)N[C@@H](CO)C(=O)N[C@@H](CCC(=O)O)C(=O)N[C@@H](CCCNC(=N)N)C(=O)N[C@@H](C)C(=O)N[C@@H](CCC(N)=O)C(=O)N[C@@H](CC(=O)O)C(=O)N[C@@H](Cc1ccccc1)C(=O)N[C@H](C(=O)N[C@@H](CCC(N)=O)C(=O)N[C@@H](Cc1c[nH]c2ccccc12)C(=O)N[C@@H](CC(C)C)C(=O)N[C@H](C(=O)N[C@@H](C)C(=O)NCC(=O)NCC(N)=O)C(C)C)C(C)C)C(=O)O [g729] (H-HSQGTFTSDYSKK([γGlu-Palmitoyl])LDSERAQDFVQWLVAGG-NH2),,,,0.0729 nM,209 nM,0.0319 nM
CCCCCCCCCCCCCCCC(=O)N[C@@H](CCC(=O)NCCCC[C@H](NC(=O)[C@H](Cc1ccc(O)cc1)NC(=O)[C@H](CCC(=O)O)NC(=O)[C@H](CO)NC(=O)[C@H](Cc1ccc(O)cc1)NC(=O)[C@H](CC(=O)O)NC(=O)[C@H](CO)NC(=O)[C@@H](NC(=O)[C@H](Cc1ccccc1)NC(=O)[C@@H](NC(=O)CNC(=O)[C@H](CCC(N)=O)NC(=O)[C@H](CO)NC(=O)[C@@H](N)Cc1c[nH]cn1)[C@@H](C)O)[C@@H](C)O)C(=O)N[C@@H](CC(=O)O)C(=O)N[C@@H](CO)C(=O)N[C@@H](CCCNC(=N)N)C(=O)N[C@@H](CCCNC(=N)N)C(=O)N[C@@H](C)C(=O)N[C@@H](CCC(N)=O)C(=O)N[C@@H](CC(=O)O)C(=O)N[C@@H](Cc1ccccc1)C(=O)N[C@H](C(=O)N[C@@H](CCC(N)=O)C(=O)N[C@@H](Cc1c[nH]c2ccccc12)C(=O)N[C@@H](CC(C)C)C(=O)N[C@H](C(=O)N[C@@H](C)C(=O)NCC(=O)NCC(N)=O)C(C)C)C(C)C)C(=O)O [g731] (H-HSQGTFTSDYSEYK([γGlu-Palmitoyl])DSRRAQDFVQWLVAGG-NH2; N-terminus assumed),0.0422 nM,40.7 nM,0.0277 nM,,,
CCCCCCCCCCCCCCCC(=O)N[C@@H](CCC(=O)NCCCC[C@H](NC(=O)[C@H](Cc1ccc(O)cc1)NC(=O)[C@H](CCCCN)NC(=O)[C@H](CO)NC(=O)[C@H](Cc1ccc(O)cc1)NC(=O)[C@H](CC(=O)O)NC(=O)[C@H](CO)NC(=O)[C@@H](NC(=O)[C@H](Cc1ccccc1)NC(=O)[C@@H](NC(=O)CNC(=O)[C@H](CCC(N)=O)NC(=O)CNC(=O)[C@@H](N)Cc1c[nH]cn1)[C@@H](C)O)[C@@H](C)O)C(=O)N[C@@H](CC(=O)O)C(=O)N[C@@H](CO)C(=O)N[C@@H](CCC(=O)O)C(=O)N[C@@H](CCCNC(=N)N)C(=O)N[C@@H](C)C(=O)N[C@@H](CCCNC(=N)N)C(=O)N[C@@H](CC(=O)O)C(=O)N[C@@H](Cc1ccccc1)C(=O)N[C@H](C(=O)N[C@@H](C)C(=O)N[C@@H](Cc1c[nH]c2ccccc12)C(=O)N[C@@H](CC(C)C)C(=O)N[C@H](C(=O)N[C@@H](C)C(=O)NCC(=O)NCC(N)=O)C(C)C)C(C)C)C(=O)O [g732] (H-HGQGTFTSDYSKYK([γGlu-Palmitoyl])DSERARDFVAWLVAGG-NH2; N-terminus assumed),0.0232 nM,29.4 nM,0.0396 nM,,,
CCCCCCCCCCCCCCCC(=O)N[C@@H](CCC(=O)NCCCC[C@H](NC(=O)[C@H](Cc1ccc(O)cc1)NC(=O)[C@H](CCCCN)NC(=O)[C@H](CO)NC(=O)[C@H](Cc1ccc(O)cc1)NC(=O)[C@H](CC(=O)O)NC(=O)[C@H](CO)NC(=O)[C@@H](NC(=O)[C@H](Cc1ccccc1)NC(=O)[C@@H](NC(=O)CNC(=O)[C@H](CCC(=O)O)NC(=O)CNC(=O)[C@@H](N)Cc1c[nH]cn1)[C@@H](C)O)[C@@H](C)O)C(=O)N[C@@H](CC(=O)O)C(=O)N[C@@H](CO)C(=O)N[C@@H](CCCNC(=N)N)C(=O)N[C@@H](CCCNC(=N)N)C(=O)N[C@@H](C)C(=O)N[C@@H](CCC(N)=O)C(=O)N[C@@H](CC(=O)O)C(=O)N[C@@H](Cc1ccccc1)C(=O)N[C@H](C(=O)N[C@@H](CCC(N)=O)C(=O)N[C@@H](Cc1c[nH]c2ccccc12)C(=O)N[C@@H](CC(C)C)C(=O)N[C@H](C(=O)N[C@@H](C)C(=O)NCC(=O)NCC(N)=O)C(C)C)C(C)C)C(=O)O [g733] (H-HGEGTFTSDYSKYK([γGlu-Palmitoyl])DSRRAQDFVQWLVAGG-NH2),,,,0.0231 nM,817 nM,62 nM
CCCCCCCCCCCCCCCC(=O)NCCC(=O)NCCCC[C@H](NC(=O)[C@H](CO)NC(=O)[C@H](CC(=O)O)NC(=O)[C@H](CC(C)C)NC(=O)[C@H](Cc1ccc(O)cc1)NC(=O)[C@H](CCC(=O)O)NC(=O)[C@H](CO)NC(=O)[C@H](Cc1ccc(O)cc1)NC(=O)[C@H](CC(=O)O)NC(=O)[C@H](CO)NC(=O)[C@@H](NC(=O)[C@H](Cc1ccccc1)NC(=O)[C@@H](NC(=O)CNC(=O)[C@H](CCC(=O)O)NC(=O)[C@H](CO)NC(=O)[C@@H](N)Cc1c[nH]cn1)[C@@H](C)O)[C@@H](C)O)C(=O)N[C@@H](CCCNC(=N)N)C(=O)N[C@@H](C)C(=O)N[C@@H](CCCNC(=N)N)C(=O)N[C@@H](CC(=O)O)C(=O)N[C@@H](Cc1ccccc1)C(=O)N[C@H](C(=O)N[C@@H](C)C(=O)N[C@@H](Cc1c[nH]c2ccccc12)C(=O)N[C@@H](CC(C)C)C(=O)N[C@@H](CCC(=O)O)C(=O)N[C@@H](C)C(=O)NCC(=O)NCC(N)=O)C(C)C [g734] (H-HSEGTFTSDYSEYLDSK([βAla-Palmitoyl])RARDFVAWLEAGG-NH2; N-terminus assumed),0.0695 nM,1170 nM,82.8 nM,,,
